Experimental data reported in ChEMBL document CHEMBL1144059, “Interference of linoleic acid fraction in some receptor binding assays” (J Nat Prod, 1999).

Key:
Rattus norvegicus [1] = organism: Rattus norvegicus; experiment: Displacement of [3H]naloxone from rat opioid receptor at 10 uM
Bos taurus [2] = organism: Bos taurus; experiment: Displacement of [3H]nitrobenzylthiosine from nucleoside transport protein in calf lung membrane at 1 mM; format: cell membranes
Bos taurus [3] = organism: Bos taurus; experiment: Displacement of [3H]nitrobenzylthiosine from nucleoside transport protein in calf lung membrane at 10 uM; format: cell membranes
[4] = target: T1, Adenosine receptor A1 (Rattus norvegicus) (UniProt P25099); experiment: Displacement of [3H]DPCPX from rat brain adenosine A1 receptor at 56 uM assessed per mg of protein by saturation analysis
T1 sequence (whole entry): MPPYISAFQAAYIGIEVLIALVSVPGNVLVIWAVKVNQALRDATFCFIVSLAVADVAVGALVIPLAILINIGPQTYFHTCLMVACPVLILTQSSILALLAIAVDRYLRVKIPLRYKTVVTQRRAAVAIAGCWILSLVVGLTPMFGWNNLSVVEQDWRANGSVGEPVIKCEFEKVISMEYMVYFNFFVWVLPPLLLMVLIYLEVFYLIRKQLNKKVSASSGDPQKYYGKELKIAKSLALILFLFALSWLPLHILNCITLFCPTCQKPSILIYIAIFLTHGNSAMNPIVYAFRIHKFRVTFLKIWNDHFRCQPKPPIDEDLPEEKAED

[5] = target: T1, Adenosine receptor A1 (Rattus norvegicus); experiment: Displacement of [3H]DPCPX from rat adenosine A1 receptor at 10 uM by liquid scintillation counting
[6] = target: T1, Adenosine receptor A1 (Rattus norvegicus); experiment: Displacement of [3H]DPCPX from rat adenosine A1 receptor at 1 mM by liquid scintillation counting
Adenosine receptor A1 = target: T2, Adenosine receptor A1 (Rattus norvegicus, UniProt P25099); experiment: Displacement of [3H]DPCPX from rat adenosine A1 receptor by liquid scintillation counting
T2 sequence (P25099 whole entry): T1 sequence (whole entry)

Rattus norvegicus [7] = organism: Rattus norvegicus; experiment: Displacement of [3H]naloxone from rat opioid receptor at 1 mM
[8] = target: T1, Adenosine receptor A1 (Rattus norvegicus); experiment: Displacement of [3H]DPCPX from rat adenosine A1 receptor at 0.1 mM by liquid scintillation counting
Bos taurus [9] = organism: Bos taurus; experiment: Displacement of [3H]nitrobenzylthiosine from nucleoside transport protein in calf lung membrane at 0.1 mM; format: cell membranes
Rattus norvegicus [10] = organism: Rattus norvegicus; experiment: Displacement of [3H]naloxone from rat opioid receptor at 0.1 mM

In the case of CCCCC/C=C\C/C=C\CCCCCCCC(=O)O [LINOLEIC ACID], the Activity (Rattus norvegicus [1]) is reported as 100%, the Activity (Bos taurus [2]) is reported as < 0% and the Activity (Bos taurus [3]) is reported as 100%. It also gave an Activity [4] of 143 fmol, an Activity [5] of 85% and an Activity [6] of 0%. The IC50 (Adenosine receptor A1) was 65 µM, the Activity (Rattus norvegicus [7]) was > 100% and the Activity [8] was 3%. For the same compound, the Activity (Bos taurus [9]) was 100% and the Activity (Rattus norvegicus [10]) was 42%.
